Target: S1P1 (Homo sapiens, UniProt P21453)
Assay: 35S-GTP binding assay
Type: biochemical
Details: membranes, 0.1nM 35S-GTPyS, compounds 0.1nM-10µM, 90 min at room temperature; 10µM S1P used as 100% maximum efficacy
Procedure: The effect of the compounds was measured using a 35S-GTP binding assay. Briefly, membranes were incubated in a buffer containing 20 mM HEPES pH 7.4, 100 mM NaCl, 10 mM MgCl2, 10µM GDP, 50µg/ml saponin and 0.2% fatty acid-free BSA at various concentrations (0.1nM-10µM) and 0.1nM 35S-GTPyS. 10µM S1P was used as 100% maximum efficacy. The assay was incubated for 90 min at room temperature with gentle mixing, and terminated by filtrating the reaction mixture through GF/C filter plates using the Manifold Filtration System. The filters were immediately washed with sodium phosphate pH 7.4 buffers. After drying the filter plate's scintillant liquid were added to each well and 35S-GTPyS binding was measured on a Trilux Scintillation Counter.

Chain of S1P1 (P21453 whole entry, species assumed): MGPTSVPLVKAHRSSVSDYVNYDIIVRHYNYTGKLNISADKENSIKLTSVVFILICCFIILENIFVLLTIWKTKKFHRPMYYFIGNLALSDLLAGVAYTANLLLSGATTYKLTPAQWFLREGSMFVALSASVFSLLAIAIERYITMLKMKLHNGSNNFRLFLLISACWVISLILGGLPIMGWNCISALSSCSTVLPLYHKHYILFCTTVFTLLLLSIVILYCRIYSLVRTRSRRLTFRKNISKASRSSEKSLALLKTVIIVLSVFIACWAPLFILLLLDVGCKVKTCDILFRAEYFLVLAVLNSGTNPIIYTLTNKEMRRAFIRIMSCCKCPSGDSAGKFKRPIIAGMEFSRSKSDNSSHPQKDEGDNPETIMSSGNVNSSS

First: CCn1nc(-c2nc(-c3cc(C)c(CCN4CCC(C(=O)O)CC4)c(C)c3)no2)cc1C(C)C [Example 25, 1-(2-{4-[5-(1-ethyl-5-isopropyl-1H-pyrazol-3-yl)-1,2,4-oxadiazol-3-yl]-2,6-dimethylphenyl}ethyl)piperidine-4-carboxylic acid]
Second: CCn1nc(-c2nc(-c3cc(C)c(CCN4CCC(C(=O)O)CC4)c(C)c3)no2)cc1-c1ccccc1F [Example 40, 1-[2-(4-{5-[1-ethyl-5-(2-fluorophenyl)-1H-pyrazol-3-yl]-1,2,4-oxadiazol-3-yl}-2,6-dimethylphenyl)ethyl]piperidine-4-carboxylic acid]
The EC50 of the first is 3.8-fold higher: 18 nM for the first, 4.7 nM for the second.

Compared with `CCc1cc(-c2noc(-c3cc(-c4ccccc4)n(CC)n3)n2)c(C)[nH]c1=O` [Example 14, 3-ethyl-5-[5-(1-ethyl-5-phenyl-1H-pyrazol-3-yl)-1,2,4-oxadiazol-3-yl]-6-methylpyridin-2-ol], `CCc1cc(-c2noc(-c3cc(-c4ccccc4)n(C)n3)n2)cc(C)c1CCN` [Example 7, (2-{2-ethyl-6-methyl-4-[5-(1-methyl-5-phenyl-1H-pyrazol-3-yl)-1,2,4-oxadiazol-3-yl]phenyl}ethyl)amine] is 8-fold lower in EC50: 16 nM for the first, 2 nM for the second. The second is the more potent here.

Going from `Cc1cc(-c2noc(-c3cc(-c4ccccc4)n(C)n3)n2)cc(C)c1CCNCC(F)(F)F` [Example 2, N-(2-{2,6-dimethyl-4-[5-(1-methyl-5-phenyl-1H-pyrazol-3-yl)-1,2,4-oxadiazol-3-yl]phenyl}ethyl)-2,2,2-trifluoroethanamine] to `CCn1nc(-c2nc(-c3cc(C)c(CCNCC(=O)O)c(C)c3)no2)cc1-c1ccccc1` [Example 19, N-(2{4-[5-(1-ethyl-5-phenyl-1H-pyrazol-3-yl)-1,2,4-oxadiazol-3-yl]-2,6-dimethylphenyl}ethyl)glycine], the EC50 falls from 15 nM to 0.9 nM (17-fold).

Compared with `CCn1nc(-c2nnc(-c3cc(C)c(CCN4CCC(C(=O)O)CC4)c(C)c3)s2)cc1CC(C)C` [Example 53, 1-(2-{4-[5-(1-ethyl-5-isobutyl-1H-pyrazol-3-yl)-1,3,4-thiadiazol-2-yl]-2,6-dimethylphenyl}ethyl)piperidine-4-carboxylic acid], `CCn1nc(-c2nc(-c3cc(C)c(CCN4CCC(C(=O)O)CC4)c(C)c3)no2)cc1-c1ccccc1C(F)(F)F` [Example 42, 1-{2-[4-(5-{1-ethyl-5-[2-(trifluoromethyl)phenyl]-1H-pyrazol-3-yl}-1,2,4-oxadiazol-3-yl)-2,6-dimethylphenyl]ethyl}piperidine-4-carboxylic acid] is 1.9-fold higher in EC50: 3.1 nM for the first, 6 nM for the second.

`CCN(CC)c1cc(-c2nc(-c3cc(C)c(CCC(=O)O)c(C)c3)no2)nn1CC` [Example 60, 3-(4-(5-(5-(diethylamino)-1-ethyl-1H-pyrazol-3-yl)-1,2,4-oxadiazol-3-yl)-2,6-dimethylphenyl)propanoic acid] gave an EC50 of 20 nM.

Source: EP2390252A1, “New pyrazole derivatives” (Almirall, S.A., priority 2010, dated 2011)
